Measurements: ChEMBL document CHEMBL1135189, “Discovery of non-zwitterionic GABA(A) receptor full agonists and a superagonist” (Bioorg Med Chem Lett, 2002)

What was measured:
Type in all cases: functional
[1] = target: T1, GABA-A receptor; anion channel (Mus musculus) (UniProt Q8BHJ7+P26048+Q8QZW7+P50571+Q9R0Y8+P22723+A2AMW3+P62812+Q9JLF1+P26049+P22933+Q9D6F4+P63080+P27681+P16305); assay: Agonistic activity against GABA-A receptor chloride uptake, full agonist
[2] = target: GABA-A receptor; anion channel; assay: Activation of chloride ion uptake into mouse brain synaptoneurosomes
[3] = target: T1, GABA-A receptor; anion channel (Mus musculus); assay: Agonistic activity against GABA-A receptor chloride uptake, partial agonist
[4] = target: GABA-A receptor; anion channel; assay: Activation of chloride ion uptake into mouse brain synaptoneurosomes, no net uptake at […]
[5] = target: T1, GABA-A receptor; anion channel (Mus musculus); assay: Agonistic activity against GABA-A receptor chloride uptake, super-agonist

Row | Compound | Emax [1] | EC50 [2] | Emax [3] | also measured
1 | NCCCCNC(=O)CCCN | 497 | 1140 µM |  | 
2 | NCCCC(=O)NCCNC(=O)CCCN |  | 733 µM | 264 | 
3 | NCCCC(=O)NCCN |  |  |  | EC50 [4]: > 4000 µM
4 | CCCCNC(=O)CCCN |  | 340 µM | 362 | 
5 | Oc1noc2c1CCNC2 [GABOXADOL] |  | 335 µM |  | 
6 | NCCCC(=O)NCCCCCCNC(=O)CCCN | 433 | 643 µM |  | 
7 | NCCCC(N)=O |  | 317 µM | 307 | 
8 | NCCCC(=O)NCCCCNC(=O)CCCN |  | 475 µM |  | Emax [5]: 578
9 | CC(=O)NCCCCNC(=O)CCCN | 549 | 414 µM |  | 
10 | NCCCC(=O)NCCNCC(=O)O |  |  |  | EC50 [4]: > 4000 µM
